# Where a name gives a salt, the structure may show the parent alone.
# Molecular target: T1, lysozyme (Gallus gallus, UniProt P00698)
# T1 construct: Lysozyme (from chicken egg white, >40,000 units/mg of protein); purchased Sigma Aldrich; host or cells: chicken egg white
# Experiment: Photochemical labeling of lysozyme with pyridinium salts (General Procedure B, LC/MS)
# Type: biochemical, chicken
# Experimental: General Procedure B: Photochemical Irradiation of Peptides and Proteins: To a 2 mL Pyrex LC/MS vial (Thermo model #03-391-39) were sequentially added solutions containing the desired biomolecule, glutathione (GSH), pyridinium salt, and ammonium acetate (NH4OAc). The resulting solution was diluted to a final volume of 500 μL and then sparged using nitrogen for a minimum of 30 minutes prior to irradiation. The actively sparging solution was then placed in an EvoluChem™ PhotoRedOx Box photoreactor that was equipped with a Kessil, PR160 427 nm LED Lamp and was then irradiated (100% lamp intensity) for the designated time at room temperature while maintaining active sparging. The resultant reaction mixture was then analyzed directly by LC/MS. Analysis of labeling outcomes using LC/MS was performed either by extracted ion chromatogram intensities (method A) or by integrating the area under the peaks associated with peptide content (method B). These values were totaled, and estimated percentages were assigned according to relative intensities of peaks or ion counts.
# Labeling of Lysozyme with Pyridinium Salt 2a (Lysozyme-2a Conjugate). Labeling of lysozyme (14.3 kDa) with the pyridinium salt 2a was performed by following general procedure B using the following solutions: lysozyme (27 μL, 182 μM, 10 μM final concentration), pyridinium salt 2a (200 μL, 500 μM, 200 μM final concentration), NH4OAc (100 μL, 100 mM, pH=6.9, 20 mM final concentration), glutathione (15 μL, 10 mM, 300 μM final concentration), and water (158 μL) with a 100% intensity irradiation time of 60 minutes. The reaction mixture was analyzed directly by LC/MS using method A and was estimated to have proceeded in >95% conversion and a 10.9:1 mono:di labeled ratio and 10% glutathionylation of all unlabeled and labeled protein content was observed.
# Labeling of Lysozyme with Pyridinium Salt 2b (Lysozyme-2b Conjugate). Labeling of lysozyme (14.3 kDa) with the pyridinium salt 2b was performed by following general procedure Busing the following solutions: lysozyme (19 μL, 262 μM, […]), 2b (181 μL, 554 μM, 200 μM final concentration), NH4OAc (50 μL, 200 mM, pH=6.9, 20 mM final concentration), glutathione (50 μL, 3 mM, 300 μM final concentration), and water (200 μL) with a 100% intensity irradiation time of 10 minutes. The reaction mixture was analyzed directly by LC/MS using method A and was estimated to have proceeded with 83% conversion. […]
# Labeling of Lysozyme with Pyridinium Salt 2c (Lysozyme-2c Conjugate). […] The reaction mixture was analyzed directly by LC/MS using method A and was estimated to have proceeded with 85% conversion and a 3.7:1 mono:di labeled ratio and 10% glutathionylation of all protein content was observed. […]
# T1 sequence (P00698 19-147): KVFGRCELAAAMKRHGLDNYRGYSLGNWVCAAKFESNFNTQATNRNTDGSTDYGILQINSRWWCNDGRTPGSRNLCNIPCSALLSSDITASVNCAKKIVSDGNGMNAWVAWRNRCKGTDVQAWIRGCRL
Compound,labeling rate compared to pyridinium salt 2a (lysozyme labeling),"Modified Trp (trypsin digest, MS-MS)"
"COc1ccc2cc(-c3cc(C)[n+](N(C)C(=O)OCCCCC[C@H]4SC[C@H]5NC(=O)N[C@H]54)c(C)c3)ccc2c1 (stereo in doubt) [pyridinium salt 2b, 4-(6-methoxynaphthalen-2-yl)-2,6-dimethyl-1-(methyl(((5-((3aR,4R,6aS)-2-oxohexahydro-1H-thieno[3,4-d]imidazol-4-yl)pentyl)oxy)carbonyl)amino)pyridin-1-ium tetrafluoroborate]",much faster rate,–
"COC(=O)N(C)[n+]1c(C)cc(-c2ccc3cc(OC)ccc3c2)cc1C [pyridinium salt 2a, 1-((methoxycarbonyl)(methyl)amino)-4-(6-methoxynapthalen-2-yl)-2,6-dimethylpyridin-1-ium tetrafluoroborate]",–,Trp-62

# From patent US20240262845A1, “PYRIDINIUM SALTS, METHODS OF MAKING, AND METHODS OF USE” (UNIVERSITY OF WYOMING, priority 2023, published 2024)
